The values below come from patent publication EP0498331B1, “N-(aryloxyalkyl)heteroaryl-8-azabicyclo(3.2.1)octanes, intermediates and a process for the preparation thereof and their use as medicaments” (HOECHST-ROUSSEL PHARMACEUTICALS INCORPORATED, priority 1991, dated 1992).

Assay [1] deals with T1, serotonin (5-hydroxytryptamine [5HT]) uptake (Rattus norvegicus, UniProt P31652).
T1 construct: Either whole brain minus cerebella or hypothalmus is weighed and homogenized in 9 volumes of ice-cold 0.32 M sucrose; from tissue; host or cells: Male Wistar rat brain (whole brain minus cerebella, or hypothalamus), S1 supernatant / synaptosomes
T1 sequence (P31652 whole entry): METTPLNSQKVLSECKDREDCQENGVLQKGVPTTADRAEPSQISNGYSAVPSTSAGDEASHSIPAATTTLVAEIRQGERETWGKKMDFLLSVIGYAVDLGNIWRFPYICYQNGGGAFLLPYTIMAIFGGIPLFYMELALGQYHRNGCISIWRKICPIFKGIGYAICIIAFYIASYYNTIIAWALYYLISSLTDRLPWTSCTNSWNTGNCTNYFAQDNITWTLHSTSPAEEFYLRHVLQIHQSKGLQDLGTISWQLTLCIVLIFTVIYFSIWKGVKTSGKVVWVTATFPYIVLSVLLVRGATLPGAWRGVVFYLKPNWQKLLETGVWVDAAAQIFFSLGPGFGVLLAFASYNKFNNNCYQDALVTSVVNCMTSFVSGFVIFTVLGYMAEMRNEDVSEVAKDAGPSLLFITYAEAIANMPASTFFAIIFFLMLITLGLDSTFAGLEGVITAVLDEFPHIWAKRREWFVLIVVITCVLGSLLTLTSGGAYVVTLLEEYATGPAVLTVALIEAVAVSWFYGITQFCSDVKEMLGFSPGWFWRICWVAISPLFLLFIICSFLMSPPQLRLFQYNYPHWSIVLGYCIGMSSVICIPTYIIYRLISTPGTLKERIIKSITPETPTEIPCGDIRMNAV
Description: ³H-serotonin uptake in rat whole brain and hypothalamic synaptosomes. In kind it is biochemical. To be noted: inhibition of [³H]-5HT uptake, 50 nM ³H-5HT, rat whole brain minus cerebella or hypothalamus, 37°C for 5 minutes; log-probit analysis; read-out: 5-HT-IC₅₀. The method, then: This activity is determined in an assay which measures ³H-serotonin uptake in rat whole brain and hypothalamic synaptosomes. The assay described below is used as a biochemical screen for potential antidepressants which block serotonin (5-hydroxytryptamine [5HT]) uptake.
1. Krebs-Henseleit Bicarbonate Buffer, pH 7.4 (KHBB): Prepare a 1 liter batch containing the following salts.
The batch is aerated for 60 minutes with 95% 0₂/5% CO₂, the pH is checked to insure it is at 7.4 ± 0.1. 2. Add 0.32 M sucrose: 21.9 g of sucrose, q.s. to 200 ml. 3. A 0.1mM stock solution of serotonin creatinine SO₄ is made up in 0.01 N HCl. This is used to dilute the specific activity of the radiolabeled 5HT. 4. 5-[1,2-³H(N)]-Hydroxytryptamine creatinine sulfate (serotonin) specific activity 20-30 Ci/mmol is used. The final desired concentration of ³H-5HT in the assay is 50 nM. The dilution factor is 0.8. The KHBB is made up to contain 62.5 nM of [³H]-5HT. Add to 100 ml of KHBB.
5. For most assays, a 1mM stock solution of the test compound is made up in a suitable solvent and serially diluted such that the final concentration in the assay ranges from 2 X 10⁻⁸ to 2 X 10⁻⁵M. Seven concentrations are used for each assay.
Male Wistar rats are decapitated and the brain rapidly removed. Either whole brain minus cerebella or hypothalmus is weighed and homogenized in 9 volumes of ice-cold 0.32 M sucrose using a Potter-Elvejhem homogenizer. The homogenate is centrifuged at 1000 g for 10 minutes at 0-4°C. The supernatant (S₁) is decanted and is used for uptake determination.
800 µl KHBB + [³H]-5HT 20 µl Vehicle or appropriate drug 200 µl Tissue suspension concentration
Tubes are incubated at 37°C under a 95%O₂/5% CO₂ atmosphere for 5 minutes. For each assay, 3 tubes are incubated with 20 µl of vehicle at 0°C in an ice bath. After incubation all tubes are immediately centrifuged at 4000 g for 10 minutes. The supernatant fluid is aspirated and the pellets dissolved by adding 1 ml of solubilizer (Triton X-100 and 50% ethanol, 1:4 v/v). The tubes are vigorously vortexted, decanted into scintillation vials, and counted in 10 ml of Liquiscint scintillation counting cocktail. Active uptake is the difference between cpm at 37°C and 0°C. The per cent inhibition at each drug concentration is the mean of three determinations. IC₅₀ values are derived from log-probit analysis.

The subject of a further assay is CK-1 male mice. The experiment in a line: climbing mice assay (antagonism of apomorphine-induced climbing). In kind it is in vivo. To be noted: Mus musculus, ip, read-out: CLIMBING MOUSE ASSAY (ED₅₀ mg/kg, ip). The method, then:
The compounds of the present invention are useful for treating psychoses by virtue of their ability to elicit an antipsychotic response in animals. Antipsychotic activity is determined in the climbing mice assay by a method similar to those described by P. Protais, et al., Psychopharmacol., 50:1(1976) and B. Costall, Eur. J. Pharmacol., 50:39 (1978).
Subject CK-1 male mice (23-27 grams) are grouped-housed under standard laboratory conditions. The mice are individually placed in wire mesh stick cages (4" X 10") and are allowed one hour for adaption and exploration of the new environment. Then apomorphine is injected subcutaneously at 1.5 mg/kg, a dose causing climbing in all subjects for 30 minutes. Compounds to be tested for antipsychotic activity are injected intraperitoneally or given oral doses at various time intervals, e.g. 30 minutes, 60 minutes, etc. prior to the apomorphine challenge at a screening dose of 10-60 mg/kg.
For evaluation of climbing, 3 readings are taken at 10, 20 and 30 minutes after apomorphine administration according to the following scale:
Mice consistently climbing before the injection of apomorphine are discarded.
With fully-developed apomorphine climbing, the animals are hanging on to the cage walls, rather motionless, over longer periods of time. By contrast, climbs due to mere motor stimulation usually only last a few seconds.
The climbing scores are individually totaled (maximal score: 6 per mouse over 3 readings) and the total score of the control group (vehicle intraperitoneally-apomorphine subcutaneously) is set to 100%. ED₅₀ values with 95% confidence limits, calculated by a linear regression analysis, of representative compounds of the present invention as well as a standard antipsychotic agent are presented in Table 1.

pIC50: −log10 of the molar value. Structures can show the parent of a compound that is named as a salt. Where two headings read alike, the source gives them in different places.

Consider `COc1cc(C(C)=O)ccc1OCCCCN1C2CCC1CC(c1n[nH]c3ccccc13)C2` (stereo not shown) [[4-[4-[3-[1H-Indazol-3-yl]-8-azabicyclo[3.2.1]octan-8-yl]butoxy]-3-methoxyphenyl]ethanone fumarate hemihydrate], for which, in assay [1], the pIC50 is 7.15.

On to `CN1CCN(C2=Nc3cc(Cl)ccc3Nc3ccccc32)CC1` [Clozapine, reference compound], for which, in the assay with CK-1 male mice (apomorphine 1.5 mg/kg subcutaneously, climbing score vs control group set to 100%, linear regression analysis), the ED50 turned out to be 8.1 mg/kg.

As for `COc1cc(C(C)=O)ccc1OCCCCN1C2CCC1CC(c1n[nH]c3cc(F)ccc13)C2` (stereo not shown) [[4-[4-[3-[6-Fluoro-1H-indazol-3-yl]-8-azabicyclo[3.2.1]-octan-8-yl]butoxy]-3-methoxyphenyl]ethanone], in assay [1], the pIC50 is 7.70.

As to `COc1cc(C(C)=O)ccc1OCCCN1C2CCC1CC(c1noc3cc(F)ccc13)C2` (stereo not shown) [[4-[3-[3-[6-Fluoro-1,2-benzisoxazol-3-yl]-8-azabicyclo[3.2.1]octan-8-yl]propoxy]-3-methoxyphenyl] ethanone monohydrochloride], the ED50 with CK-1 male mice was determined as 5 mg/kg.

Consider `COc1cc(C(C)=O)ccc1OCCN1C2CCC1CC(c1noc3ccccc13)C2` (stereo not shown) [[4-[2-[3-[1,2-Benzisoxazol-3-yl]-8-azabicyclo[3.2.1]octan-8-yl]ethoxy]-3-methoxyphenyl]ethanone fumarate], for which, in assay [1], the pIC50 is 8.00.

Consider `COc1cc(C(C)=O)ccc1OCCCCN1C2CCC1CC(c1nsc3ccccc13)C2` (stereo not shown) [[4-[4-[3-[1,2-Benzisothiazol-3-yl]-8-azabicyclo[3.2.1]octan-8-yl]butoxy]-3-methoxyphenyl]ethanone monohydrochloride], for which the pIC50 in assay [1] is 7.57.

Regarding `COc1cc(C(C)=O)ccc1OCCN1C2CCC1CC(c1noc3cc(F)ccc13)C2` (stereo not shown) [[4-[2-[3-[6-Fluoro-1,2-benzisoxazol-3-yl]-8-azabicyclo[3.2.1]octan-8-yl]ethoxy]-3-methoxyphenyl]ethanone fumarate], the ED50 in the assay on CK-1 male mice is 12.5 mg/kg.
